Where a name gives a salt, the structure may show the parent alone.
Biological target: T1, 6his-tagged full length BACE 1 from SF9 cells (Homo sapiens, UniProt P56817)
T1 construct: 6his-tagged full length BACE 1 from SF9 cells; made in house; host or cells: Sf9 insect cells
Assay: BACE1 MR121 protease assay
Format: biochemical
Conditions: 30 nM 6his-BACE-1, 300 nM substrate peptide WSEVNLDAEFRC-MR121, Na-acetate pH 4.0, fluorescence

T1 sequence (P56817 46-501): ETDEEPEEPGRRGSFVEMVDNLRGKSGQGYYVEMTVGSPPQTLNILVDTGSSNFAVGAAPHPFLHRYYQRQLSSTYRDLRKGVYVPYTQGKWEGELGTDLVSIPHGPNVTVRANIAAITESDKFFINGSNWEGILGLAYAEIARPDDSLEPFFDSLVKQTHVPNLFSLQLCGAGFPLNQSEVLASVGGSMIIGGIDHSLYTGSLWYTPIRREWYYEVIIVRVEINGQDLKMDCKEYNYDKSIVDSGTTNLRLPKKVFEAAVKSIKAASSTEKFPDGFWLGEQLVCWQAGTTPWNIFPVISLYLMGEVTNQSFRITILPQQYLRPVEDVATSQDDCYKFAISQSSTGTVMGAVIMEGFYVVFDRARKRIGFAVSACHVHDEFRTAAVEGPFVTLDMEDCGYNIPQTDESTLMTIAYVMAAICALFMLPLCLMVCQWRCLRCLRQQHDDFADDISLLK

IC50 | Compound
80 nM | CCOCc1cc(Nc2ccccc2)cc(C2(c3ccc(OC(F)F)c(C)c3)COC(N)=N2)c1 (racemic) [Example 193, (RS)-4-(4-Difluoromethoxy-3-methyl-phenyl)-4-(3-ethoxymethyl-5-phenylamino-phenyl)-4,5-dihydro-oxazol-2-ylamine]
140 nM | CCOCc1cc(Nc2cccc(OC)c2)cc(C2(c3ccc(OC(F)F)c(C)c3)COC(N)=N2)c1 (racemic) [Example 194, (RS)-4-(4-Difluoromethoxy-3-methyl-phenyl)-4-[3-ethoxymethyl-5-(3-methoxy-phenylamino)-phenyl]-4,5-dihydro-oxazol-2-ylamine]
960 nM | CCOCc1cc(Nc2ccccc2)cc(C2(c3ccc(OC)c(C)c3)COC(N)=N2)c1 (racemic) [Example 195, (RS)-4-(3-Ethoxymethyl-5-phenylamino-phenyl)-4-(4-methoxy-3-methyl-phenyl)-4,5-dihydro-oxazol-2-ylamine]
530 nM | COCCc1cc(Nc2ccccc2)cc(C2(c3ccc(OC)c(C)c3)COC(N)=N2)c1 (racemic) [Example 197, (RS)-4-[3-(2-Methoxy-ethyl)-5-phenylamino-phenyl]-4-(4-methoxy-3-methyl-phenyl)-4,5-dihydro-oxazol-2-ylamine]
380 nM | Cc1cc(OC(F)F)ccc1C1(c2cccc(-c3cncc(C#N)c3)c2)COC(N)=N1 (racemic) [Example 200, (RS)-5-{3-[2-Amino-4-(4-difluoromethoxy-2-methyl-phenyl)-4,5-dihydro-oxazol-4-yl]-phenyl}-nicotinonitrile formate]
160 nM | Cc1cc(OC(F)F)ccc1C1(c2cccc(-c3cncc(Cl)c3)c2)COC(N)=N1 (racemic) [Example 201, (RS)-4-[3-(5-Chloro-pyridin-3-yl)-phenyl]-4-(4-difluoromethoxy-2-methyl-phenyl)-4,5-dihydro-oxazol-2-ylamine formate]
440 nM | Cc1cc(C2(c3cccc(-c4cncc(Cl)n4)c3)COC(N)=N2)ccc1OC(F)F (racemic) [Example 202, (RS)-4-[3-(6-Chloro-pyrazin-2-yl)-phenyl]-4-(4-difluoromethoxy-3-methyl-phenyl)-4,5-dihydro-oxazol-2-ylamine formate]
110 nM | Cc1cc(C2(c3cccc(-c4cncc(C#N)c4)c3)COC(N)=N2)ccc1OC(F)F (racemic) [Example 203, (RS)-5-{3-[2-Amino-4-(4-difluoromethoxy-3-methyl-phenyl)-4,5-dihydro-oxazol-4-yl]-phenyl}-nicotinonitrile formate]
160 nM | Cc1cc(C2(c3cccc(-c4cnccn4)c3)COC(N)=N2)ccc1OC(F)F (racemic) [Example 204, (RS)-4-(4-Difluoromethoxy-3-methyl-phenyl)-4-(3-pyrazin-2-yl-phenyl)-4,5-dihydro-oxazol-2-ylamine formate]
90 nM | Cc1cc(C2(c3ccc(F)c(-c4cncc(Cl)c4)c3)COC(N)=N2)ccc1OC(F)F (racemic) [Example 205, (RS)-4-[3-(5-Chloro-pyridin-3-yl)-4-fluoro-phenyl]-4-(4-difluoromethoxy-3-methyl-phenyl)-4,5-dihydro-oxazol-2-ylamine formate]
440 nM | COc1ccc([C@@]2(c3cccc(-c4cccc(Cl)c4)c3)COC(N)=N2)cc1 [Example 39A, (R)-4-(3′-Chloro-biphenyl-3-yl)-4-(4-methoxy-phenyl)-4,5-dihydro-oxazol-2-ylamine]
40 nM | Cc1cc([C@]2(c3cccc(-c4cncc(Cl)c4)c3)COC(N)=N2)ccc1OC(F)F [Example 94A, (R)-4-[3-(5-Chloro-pyridin-3-yl)-phenyl]-4-(4-difluoromethoxy-3-methyl-phenyl)-4,5-dihydro-oxazol-2-ylamine]
